# Results as given in patent publication US12590130B2, “Bipartite molecules and uses thereof in treating diseases associated with abnormal protein aggregates” (ACADEMIA SINICA, priority 2014, dated 2026).
# What was measured:
# [1] = system: R6/2 transgenic mice; assay: Therapeutic effect in R6/2 transgenic mice (function, blood sugar, lifespan); format: in vivo, mouse
# Text: FIG. 6. 8R10Q ameliorated functional deterioration of R6/2 transgenic mice. Panel A: Longitudinal rotarod performance of wild type (WT) and R6/2 mice treated with PBS or 8R10Q peptide. Note the significant delay in motor deterioration of R6/2 mice treated with 8R10Q from 11 weeks of age. Panel B: T maze test of WT and R6/2 mice at 13 weeks of age. […] Panel C: The curves of blood sugar in serum of WT and R6/2 mice treated as indicated. […] Panel D: Lifespan of WT and R6/2 mice treated with PBS vs. 8R10Q. 100% of R6/2 mice died before 16 weeks of age. […] WT mice N=6/group; R6/2 mice N=10/group; statistical analysis performed with two way ANOVA (panels A and C), one way ANOVA (panel B), *p<0.05; **p<0.01; ***p<0.001, ns: not significant, and log-rank (Mantel-Cox) Test (D), ***p<0.0001.
# To test the therapeutic effect of the peptide in vivo, the 8R10Q peptide was delivered 6 days/week into the wild type (WT) or R6/2 transgenic mice through intranasal aspiration or continuously with the Alzet osmotic minipumps into the neostriatum. […] In fact, the 8R10Q-treated R6/2 mice performed even better than the 11 week-old PBS-treated mice on average. […] The R6/2 mice were previously reported to have diabetes. Bjorkqvist et al., Hum Mol Genet (2005) 14:565-74; and Hunt et al., Experimental Brain Res (2005) 166:220-9. […] To sum up, the 8R10Q peptide effectively delayed the onset of disease and ameliorated the pathological phenotypes.
# [2] = system: R6/2 transgenic mice; assay: Neuropathology of R6/2 transgenic mice; format: in vivo, mouse
# Text: FIG. 7. Amelioration of neuronal damage of 13 week-old R6/2 mice by 8R10Q peptide. Panel A: Micrographs of the Nissl stain sections of cortex (CTX) of WT and R6/2 mice. The cortex and its thickness are highlighted by the dashed lines and red solid lines, respectively. Panel B: Quantitation of the cortical thickness. Note the decrease in cortical thickness in R6/2 mice which was reversed by the 8R10Q. […]: Micrographs (panel D) and (panel F) show the corresponding quantitation of the Nissl stained sections of the cortex and striatum, respectively. Note the decrease in the number of neurons, which was reversed by 8R10Q. N=3/group, each bar represents the average of 5 sections. Statistical analysis performed with one way ANOVA, *p<0.05; ***p<0.001, ns: not significant.
# FIG. 8. Decrease in mHtt aggregates and glial pathology in 13-week-old R6/2 mice by 8R10Q peptide treatment. Panel A: Micrographs and corresponding quantitation (panel B) of the immunostained sections of cortex (CTX) and striatum with EM48 antibody. The brown dots show the mHtt aggregates. The left subpanels of panel B show the quantitative data with respect to the total area occupied by the aggregates, and the right, the intensity of individual aggregates. Panel C: Photographs of the immunofluorescent-stained sections of the cortex of R6/2 mice with anti-GFAP antibody. […] Panel E: Micrographs of the immunostained sections of the cortex (CTX) and striatum of WT and R6/2 mice with anti-Iba1 antibody. […] N=3/group. Each bar represented an average of 15 sections/mouse group. Statistics were performed with Student's t test for panels B and D, but with one way ANOVA, *p<0.05; **p<0.01; ***p<0.001, ns: not significant.
# To correlate the beneficial effect with the aggregates of mHtt, immunohistochemistry was performed to calculate the areas occupied by the aggregates per unit area (150 μm^2). The method was selected because the frequent clustering of the aggregates into conglomerates rendered an accurate count of the aggregate number very difficult.
substance,measurement,setting,value
"H-RRRRRRRRWDQQQQQQQQQQ-NH2 [Peptide 8R10Q, NH2-(R)8-W-D-(Q)10-CONH2]",T maze test memory,"[1]; 13 week-old R6/2 mice, intranasal",corrected the memory deficit
same,"rotarod therapeutic effect, intracerebral delivery",[1]; Alzet osmotic minipumps into the neostriatum,very similar therapeutic effect to that given intranasally
same,"diabetic phenotype, inflammatory index and abnormal liver function",[1]; R6/2 mice,decreased
same,diabetes phenotype,"[1]; R6/2 mice, intracerebral",significantly corrected the diabetes phenotype
same,blood sugar,"[1]; R6/2 mice, intranasal",delayed the rise and decreased the level of blood sugar
same,prevention of premature death,"[1]; R6/2 mice, intranasal, at 16 weeks of age",41%
same,age until which motor deterioration (rotarod) was delayed,"[1]; R6/2 mice, intranasal, deterioration significant from 11 weeks with PBS",13 weeks
same,body weights,"[1]; WT or R6/2 mice, intranasal or intracerebral route",remained comparable to those treated with PBS
same,cortical thickness,[2]; 13 week-old R6/2 mice,prevented cortical thinning
same,loss of neurons in cortex and striatum,"[2]; R6/2 mice, intranasal",significantly prevented
same,intensity of mHtt aggregates,[2]; cortex and striatum,significantly decreased
same,tau signals,[2]; cortex and striatum of R6/2 mice,significantly enhanced
same,decrease in areas of mHtt aggregates,"[2]; cortex and striatum, vs PBS, EM48 immunohistochemistry",~60%
same,numbers of GFAP-positive astrocytes,[2]; cortex of R6/2 mice,significant decrease
same,numbers of Iba-1-positive microglia,[2]; cortex of R6/2 mice,significant decrease
